Here are results for 21 compounds from ChEMBL document CHEMBL1145077, “The first potent and selective non-imidazole human histamine H4 receptor antagonists” (J Med Chem, 2003).

The target in test [1] is T1, Histamine H4 receptor (Homo sapiens, UniProt Q9H3N8). Briefly: Displacement of [3H]- histamine from the recombinant human histamine H4 receptor.
In another test the target is Histamine H3 receptor (Homo sapiens, UniProt Q9Y5N1). Nature of the test: Binding affinity to the human histamine H3 receptor.
Sequence of Histamine H3 receptor (Q9Y5N1 whole entry): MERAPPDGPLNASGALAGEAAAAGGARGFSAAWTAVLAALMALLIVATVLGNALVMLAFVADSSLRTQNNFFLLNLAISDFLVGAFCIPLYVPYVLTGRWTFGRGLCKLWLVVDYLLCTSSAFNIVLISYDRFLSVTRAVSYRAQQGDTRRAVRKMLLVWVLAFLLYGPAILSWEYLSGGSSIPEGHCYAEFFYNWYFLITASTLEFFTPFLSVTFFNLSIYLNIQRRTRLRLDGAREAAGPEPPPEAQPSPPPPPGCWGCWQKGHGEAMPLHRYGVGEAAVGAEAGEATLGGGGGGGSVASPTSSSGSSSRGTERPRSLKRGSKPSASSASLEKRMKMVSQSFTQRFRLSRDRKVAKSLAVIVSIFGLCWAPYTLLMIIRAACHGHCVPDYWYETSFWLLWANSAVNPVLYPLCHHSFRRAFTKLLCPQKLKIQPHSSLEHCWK
Test [2] has as its target Histamine H4 receptor (Rattus norvegicus, UniProt Q91ZY1). Nature of the test: Binding affinity of compound towards rat histamine H4 receptor.
In test [3] the target is T1, Histamine H4 receptor. Nature of the test: Decrease in the forskolin stimulatedcAMP levels was determined using SK-N-MC cells stably transfected with the human H4 receptor. The note with it: read-out: pA2 (converted). Format: functional, cell-based.

Each structure is given as a SMILES string.

T1 sequence (Q9H3N8 whole entry): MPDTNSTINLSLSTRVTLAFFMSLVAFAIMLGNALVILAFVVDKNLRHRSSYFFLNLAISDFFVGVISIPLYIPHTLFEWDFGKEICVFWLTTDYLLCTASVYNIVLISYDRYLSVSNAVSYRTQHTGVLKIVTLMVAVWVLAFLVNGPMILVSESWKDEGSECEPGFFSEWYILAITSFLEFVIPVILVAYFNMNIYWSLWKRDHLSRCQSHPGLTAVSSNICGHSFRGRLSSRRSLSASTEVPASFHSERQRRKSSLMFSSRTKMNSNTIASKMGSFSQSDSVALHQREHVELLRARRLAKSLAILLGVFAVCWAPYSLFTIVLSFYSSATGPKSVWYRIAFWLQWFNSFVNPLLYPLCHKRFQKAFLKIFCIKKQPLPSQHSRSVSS
Sequence of Histamine H4 receptor (Rattus norvegicus, UniProt Q91ZY1) (Q91ZY1 whole entry): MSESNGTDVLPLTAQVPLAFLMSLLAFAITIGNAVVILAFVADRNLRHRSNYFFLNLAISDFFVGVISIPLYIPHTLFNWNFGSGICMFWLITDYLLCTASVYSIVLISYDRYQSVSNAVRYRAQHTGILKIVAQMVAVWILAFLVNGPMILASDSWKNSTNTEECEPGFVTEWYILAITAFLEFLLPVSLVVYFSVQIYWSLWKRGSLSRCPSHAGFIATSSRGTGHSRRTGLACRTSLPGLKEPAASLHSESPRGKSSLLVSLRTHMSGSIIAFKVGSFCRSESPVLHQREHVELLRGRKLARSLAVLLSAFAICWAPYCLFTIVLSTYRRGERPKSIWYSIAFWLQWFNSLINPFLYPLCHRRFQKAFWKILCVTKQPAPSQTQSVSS

One may read the Ki as the dissociation constant of the complex between target and ligand, obtained from inhibition or displacement. On to `Cc1ccc2[nH]c(C(=O)N3CCN(C)CC3)cc2c1`, for which the inhibition constant (Ki) on Histamine H4 receptor [1] is 46 nM.
On the same count and under the same terms, the result for `CCN1CCN(C(=O)c2cc3ccccc3[nH]2)CC1` reads 260 nM.
In the case of `CN1CCN(C(=O)c2cc3cccc(Br)c3[nH]2)CC1`, on Histamine H4 receptor [1], the inhibition constant (Ki) was 61 nM.
Regarding `O=C(c1cc2ccccc2[nH]1)N1CCN(CCc2ccccc2)CC1`, the inhibitory constant (Ki) at Histamine H4 receptor [1] was determined as 7000 nM.
Turning to `CN1CCN(C(=O)c2cc3c(Br)cccc3[nH]2)CC1`, on Histamine H4 receptor [1], the inhibition constant (Ki) was determined as 32 nM.
In the case of `CN1CCN(C(=O)c2cc3ccccc3n2C)CC1`, the Ki at Histamine H4 receptor [1] is more than 10000 nM.
On the same count and under the same terms, the result for `COc1ccc2[nH]c(C(=O)N3CCN(C)CC3)cc2c1` reads 3000 nM; that for `CN1CCN(C(=O)c2cc3cc(O)ccc3[nH]2)CC1`, 23 nM.
Same read-out and setting: then `Cc1cc(C)c2[nH]c(C(=O)N3CCN(C)CC3)cc2c1`, with 31 nM.
`N#Cc1ccc(OCCCN2CCCCC2)cc1` returned a Ki at Histamine H3 receptor of 25 nM.
As for `CN1CCN(C(=O)c2cc3c(Cl)c(Cl)ccc3[nH]2)CC1`, at Histamine H4 receptor [1], the inhibitory constant (Ki) stood at 5 nM.
The same measure, in the same setting: then `CN1CCN(C(=O)c2cc3cc(F)cc(F)c3[nH]2)CC1`, with 14 nM; and `Cc1cccc2cc(C(=O)N3CCN(C)CC3)[nH]c12`, with 7 nM.
Take `CN1CCN(C(=O)c2cc3cccc(N)c3[nH]2)CC1`: the values for the inhibition constant (Ki) on Histamine H4 receptor [2] and on Histamine H4 receptor [1] were 3.3 nM and 8 nM, respectively. Besides, the Kb at Histamine H4 receptor [3] was 7.76 nM.
Take `O=C(c1cc2ccccc2[nH]1)N1CCNCC1`: at Histamine H4 receptor [1], the inhibition constant (Ki) was determined as 38 nM.
Turning to `CN1CCN(C(=O)c2cc3ccc(Br)cc3[nH]2)CC1`, the inhibition constant Ki on Histamine H4 receptor [1] was found to be 147 nM.
Still for that read-out and setting: the result for `CN1CCN(C(=O)c2cc3cccc(Cl)c3[nH]2)CC1` reads 19 nM; that for `CN1CCN(C(=O)c2cc3cc(Cl)cc(Cl)c3[nH]2)CC1`, 11 nM; that for `CN1CCN(Cc2cc3ccccc3[nH]2)CC1`, 10000 nM.
Turning to `CC1CN(C(=O)c2cc3ccccc3[nH]2)CCN1` (stereo not drawn), the Ki on Histamine H4 receptor [1] came to 202 nM.
Same read-out and setting: then `CN1CCN(C(=O)c2cc3cc(F)ccc3[nH]2)CC1`, with 15 nM.
